Assays:
[1] = tested on: guinea pig longitudinal muscle of ileum; assay: Assay with guinea pig longitudinal muscle of ileum (inhibition of electrically stimulated contraction); type: tissue-based
Procedure: (A) Assay with guinea pig longitudinal muscle of ileum
This assay was carried out according to the method reported by H. W. Kosterlitz et al. A mature guinea pig was sacrificed by cutting its jugular and subjected to an abdominal operation to take out its ileum as a piece of 40 to 50 cm in length from a region 15 to 20 cm apart from the ileocecal region. Then it was immediately introduced into Ringer's solution and cut into 10 cm portions. The longitudinal muscle was peeled off from each piece by using a scalpel and an applicator, wound with a string and suspended in an isothermal glass cell of 6 ml in volume. Subsequently it was stimulated electrically (0.1 Hz, 0.5 ms, 80-90 V) with platinum electrodes fitted at the upper and lower sides of the cell to record the resulting contractions through a transducer.
H. W. Kosterlitz, A. A. Waterfield: Annu. Rev. Pharmacol., 15, 29 (1975).

mouse vas deferens = assay: Assay with mouse vas deferens (inhibition of electrically stimulated contraction); design: species or system isolated tissue
Procedure: (B) Assay with mouse vas deferens
This assay was carried out according to the method reported by Hughes et al. A mature male mouse was decapitated and phlebotomized. Then it was immediately subjected to an abdominal operation to take out its right and left vas deferens. Sperm clogged in the ducts was forced out with a pincette in Ringer's solution and both ends of the two ducts were united with a string to form a ring. Then it was stimulated electrically (0.1 Hz, 1 ms, 90 V) in the same manner as described in (A).
Hughes H. W., Kosterlitz H. W., Leslie F. M.: Br. J. Pharmacol., 53, 371 (1975).

[2] = tested on: writhing syndrome in ddY male mouse; assay: Acetic acid writhing assay; type: in vivo; settings: for ED50, Method (A), intravenous / ED50, Method (A), intraventricular: mouse; for ED50, Method (A), intravenous: intravenous (tail vein) administration, acetic acid 10 min after sample; for ED50, Method (A), intraventricular: intraventricular administration, acetic acid 5 min after sample
Procedure: (§1) The following two methods (A) and (B) were employed to examine the analgesic effects of the sample resulting from intravenous or intraventricular administration.
(§2) The sample and control were injected to the tail vein in the case of intravenous administration and to the side cerebral ventricle in the case of intraventricular administration according to a method reported by Haley and McCormick(1).
(A) Acetic acid writhing assay
0.1 ml/10 g of a 0.7% solution of acetic acid was administered to a ddY male mouse of 20 to 26 g in body weight by an intraabdominal injection to examine the inhibiting effect on writhing syndrome which was mainly observed as a stretching of the hind legs as an indication of the analgesic effect. Acetic acid was administered intraabdominally five min after the intraventricular administration and 10 min after the intravenous administration of the sample. Then the resulting writhing syndromes were counted for 15 min.

[3] = tested on: biting response induced by pinching the mouse tail; assay: Tail pinch assay; type: in vivo; settings: intraventricular administration
Procedure: as §1, §2
Response time had been previously determined by a pressure stimulation to select the mice which had responded within 3 sec for the experiment. According to a method reported by Takagi et al.(3), the degree of pain was scored in the following three stages depending on the response time; 0 (shorter than four sec), 1 (four to eight sec), 2 (longer than eight sec). The analgesic effect was calculated by the following equation: [formula]

[4] = peptide purified from pig duodenum; cited from earlier work
[5] = administered intraventricularly; cited from earlier work
kappa-receptor = kappa-receptor (Homo sapiens, UniProt P41145); settings: subclass of opiate receptor; different from the μ-receptor; cited from earlier work
Sequence of kappa-receptor (P41145 whole entry): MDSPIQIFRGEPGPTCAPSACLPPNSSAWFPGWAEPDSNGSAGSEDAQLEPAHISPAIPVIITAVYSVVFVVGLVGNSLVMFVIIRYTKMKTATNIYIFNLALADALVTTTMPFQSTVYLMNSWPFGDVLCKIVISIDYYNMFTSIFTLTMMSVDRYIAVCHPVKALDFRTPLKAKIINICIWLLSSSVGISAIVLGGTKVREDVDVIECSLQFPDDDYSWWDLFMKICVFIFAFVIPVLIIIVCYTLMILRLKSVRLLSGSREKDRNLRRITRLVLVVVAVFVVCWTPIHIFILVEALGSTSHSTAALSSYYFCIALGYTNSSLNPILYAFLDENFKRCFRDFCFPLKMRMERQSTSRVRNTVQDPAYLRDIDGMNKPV

Row | Compound | IC50 ([1]; concentration required to decrease electrically stimulated contraction to 50%, guinea pig ileum longitudinal muscle, read-out: IC50, Method (A)) | inhibition of contraction, fold as highly as morphine ([1]; guinea pig longitudinal muscle of ileum, relative to morphine) | IC50 (mouse vas deferens; concentration required to decrease electrically stimulated contraction to 50%, read-out: IC50, Method (B)) | inhibition of contraction, fold as highly as morphine (mouse vas deferens; relative to morphine) | analgesic effect compared with morphine on a molar basis ([2]; intravenous administration) | ED50, Method (A), intravenous [2] | ED50, Method (A), intraventricular [2] | ED50, Method (B), intraventricular [3] | morphine-like activity relative to morphine [4] | analgesic effect [5] | receptor selectivity (kappa-receptor)
1 | CC[C@@H](C)[C@@H](NC(=O)[C@H](CCCNC(=N)N)NC(=O)[C@H](CCCNC(=N)N)NC(=O)[C@H](CC(C)C)NC(=O)[C@H](Cc1ccccc1)NC(=O)CNC(=O)CNC(=O)[C@H](Cc1ccc(O)cc1)NC)C(=O)N[C@@H](CCCNC(=N)N)C(=O)N1CCC[C@H]1C(=O)N[C@@H](CCCCN)C(=O)N[C@H](CC(C)C)C(=O)N[C@@H](CCCCN)C(=O)N[C@@H](Cc1c[nH]c2ccccc12)C(N)=O [Compound of the present invention, N-Me-Tyr-Gly-Gly-Phe-Leu-Arg-Arg-D.Ile-Arg-Pro-Lys-D.Leu-Lys-Trp-NH2] | 0.35 ± 0.2 nM | approximately 270 fold | 1.1 ± 0.4 nM | approximately 970 fold | higher than that of morphine | 3.4 nmol/head | 0.017 nmol/head | 0.017 nmol/head | – | – | –
2 | CN1CC[C@]23c4c5ccc(O)c4O[C@H]2[C@@H](O)C=C[C@H]3[C@H]1C5 [Morphine, reference compound] | – | – | – | – | – | 32 nmol/head | 0.63 nmol/head | 0.24 nmol/head | – | – | –
3 | Tyr-Gly-Gly-Phe-Leu-Arg-Arg-Ile-Arg-Pro-Lys-Leu-Lys-Trp-Asp-Asp-Gln (YGGFLRRIRPKLKWDDQ; printed: Tyr-Gly-Gly-Phe-Leu-Arg-Arg-Ile-Arg-Pro-Lys-Leu-Lys-Trp-Asp-Asp-Gln) [prototype peptide, opioid peptide from pig duodenum, found earlier by some of the inventors; called prototype peptide in b11] | – | – | – | – | – | – | – | – | several hundred times as high as morphine | high analgesic effect | combined selectively with a kappa-receptor
